Results on 28 molecules are retold here after patent US9969726B2, “Metabotropic glutamate receptor negative allosteric modulators (NAMS) and uses thereof” (Sanford-Burnham Medical Research Institute, priority 2014, dated 2018).

The structures appear in SMILES notation. Where two headings read alike, the source gives them in different places.

One test deals with rat mGlu2 receptor (Rattus norvegicus (Rat), UniProt P31421). The test is described as follows: mGlu2 in vitro GIRK thallium flux assay. Particulars: NAM, EC80 glutamate, HEK-293 GIRK cells. The class given is cell-based. The essentials: (§1)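 Cells expressing rat mGlu2 or mGlu3 with GIRK, plated overnight at 37 °C. Test compounds (0.3% DMSO, 10-point 1:3 series) preincubated 2.5 or 60 min, then thallium buffer plus EC80 glutamate added. Fluorescence slope 5–15 s after addition, normalised to vehicle and maximal agonist, fitted by four-parameter logistic.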
rat mGlu2 receptor, sequence (P31421 19-872): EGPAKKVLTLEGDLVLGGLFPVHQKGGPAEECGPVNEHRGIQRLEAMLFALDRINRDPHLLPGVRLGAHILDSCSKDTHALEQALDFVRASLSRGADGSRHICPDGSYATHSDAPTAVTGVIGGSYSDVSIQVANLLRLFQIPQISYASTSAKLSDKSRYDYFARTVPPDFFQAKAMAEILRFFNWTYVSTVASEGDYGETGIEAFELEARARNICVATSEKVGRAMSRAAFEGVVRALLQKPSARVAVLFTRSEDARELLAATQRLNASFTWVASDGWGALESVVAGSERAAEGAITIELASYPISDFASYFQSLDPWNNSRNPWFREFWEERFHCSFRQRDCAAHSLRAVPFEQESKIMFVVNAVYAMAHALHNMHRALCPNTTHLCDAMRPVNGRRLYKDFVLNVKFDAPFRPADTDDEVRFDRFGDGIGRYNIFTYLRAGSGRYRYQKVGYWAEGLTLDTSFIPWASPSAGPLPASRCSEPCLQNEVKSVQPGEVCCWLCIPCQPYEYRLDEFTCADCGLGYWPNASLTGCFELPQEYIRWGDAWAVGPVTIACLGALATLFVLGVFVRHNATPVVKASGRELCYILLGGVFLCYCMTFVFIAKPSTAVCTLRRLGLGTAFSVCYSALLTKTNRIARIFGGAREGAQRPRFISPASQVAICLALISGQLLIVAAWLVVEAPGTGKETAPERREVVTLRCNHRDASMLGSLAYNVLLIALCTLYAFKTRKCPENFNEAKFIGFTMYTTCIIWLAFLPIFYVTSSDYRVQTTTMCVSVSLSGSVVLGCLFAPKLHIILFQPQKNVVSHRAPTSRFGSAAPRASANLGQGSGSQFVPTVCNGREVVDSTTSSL

The target of another test is rat mGlu3 receptor (Rattus norvegicus (Rat), UniProt P31422). Put plainly: mGlu3 in vitro GIRK thallium flux assay. The class given is cell-based. The settings on record: NAM; 2.5 min compound incubation; EC80 glutamate; HEK-293 GIRK cells. The essentials:
as §1

[1] abbreviates: 2.5 min compound incubation, read-out: mGlu2 EC50 (μM) (2.5 min).
[2] abbreviates: mGlu2 EC50 (μM) (60 min), 60 min compound incubation.
[3] abbreviates: read-out: mGlu2 EC50 (μM) (60 min), 60 min compound incubation.

rat mGlu3 receptor, sequence (P31422 23-879): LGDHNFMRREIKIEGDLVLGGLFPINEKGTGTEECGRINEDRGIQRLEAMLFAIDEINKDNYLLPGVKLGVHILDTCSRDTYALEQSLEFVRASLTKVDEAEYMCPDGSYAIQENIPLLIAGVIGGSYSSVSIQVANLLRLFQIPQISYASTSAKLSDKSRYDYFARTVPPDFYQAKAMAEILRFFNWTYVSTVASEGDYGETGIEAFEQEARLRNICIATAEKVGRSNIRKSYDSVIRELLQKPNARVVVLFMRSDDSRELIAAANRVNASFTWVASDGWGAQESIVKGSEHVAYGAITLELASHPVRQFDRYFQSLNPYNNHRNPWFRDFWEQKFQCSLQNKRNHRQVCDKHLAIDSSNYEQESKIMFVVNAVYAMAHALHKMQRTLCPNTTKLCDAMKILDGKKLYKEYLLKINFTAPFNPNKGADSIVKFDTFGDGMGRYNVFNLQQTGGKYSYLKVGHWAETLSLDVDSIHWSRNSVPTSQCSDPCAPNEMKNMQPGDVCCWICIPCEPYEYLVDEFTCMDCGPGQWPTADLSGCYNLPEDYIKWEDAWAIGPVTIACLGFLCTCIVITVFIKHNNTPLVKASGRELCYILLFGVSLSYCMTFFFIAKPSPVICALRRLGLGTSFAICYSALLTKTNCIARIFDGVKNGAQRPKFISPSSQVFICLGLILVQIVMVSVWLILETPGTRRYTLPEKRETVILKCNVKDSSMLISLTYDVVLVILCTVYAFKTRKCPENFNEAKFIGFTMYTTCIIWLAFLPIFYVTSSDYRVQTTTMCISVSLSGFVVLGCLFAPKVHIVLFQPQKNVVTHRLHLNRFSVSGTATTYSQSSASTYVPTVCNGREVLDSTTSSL

As a reminder, the EC50 is the concentration that produces a half-maximal response. `O=C(O)c1cccc(-c2cccc(-c3nc(-c4ccccc4)n(-c4ccccc4)n3)c2)c1` [Example 49A, 3′-(1,5-Diphenyl-1H-1,2,4-triazol-3-yl)-[1,1′-biphenyl]-3-carboxylic Acid]: the EC50 is > 10 µM on rat mGlu2 receptor (setting [1]), > 10 µM on rat mGlu2 receptor (setting [2]) and 1.36 µM on rat mGlu3 receptor.
On to `COc1ccc(-n2nc(-c3cccc(-c4cccc(C(=O)O)c4)c3)nc2-c2ccccc2)cc1` [Example 55, 3′-(1-(4-Methoxyphenyl)-5-phenyl-1H-1,2,4-triazol-3-yl)-[1,1′-biphenyl]-3-carboxylic Acid], for which the EC50 was > 10 µM at rat mGlu2 receptor (setting [1]), 6.58 µM at rat mGlu2 receptor (setting [2]) and 2.96 µM on rat mGlu3 receptor.
`O=C(O)c1cccc(-c2cccc(-c3noc(-c4ccccc4)n3)c2)c1` [Example 48, 3′-(5-Phenyl-1,2,4-oxadiazol-3-yl)-[1,1′-biphenyl]-3-carboxylic Acid]: the EC50 at rat mGlu2 receptor (setting [1]) was 1.33 µM; on rat mGlu2 receptor (setting [2]), 0.79 µM; on rat mGlu3 receptor, > 10 µM.
`Cc1cc2c(cc1C(F)(F)F)NC(=O)CC(c1cccc(Oc3ccccn3)c1)=N2` [Example 150, 7-Methyl-4-(3-(pyridin-2-yloxy)phenyl)-8-(trifluoromethyl)-1H-benzo[b][1,4]diazepin-2(3H)-one]: the EC50 at rat mGlu2 receptor (setting [1]) came out at 2.79 µM; at rat mGlu3 receptor, 1.52 µM.
Regarding `O=C(O)c1cccc(-c2cccc(-c3nc(-c4ccccc4)n(Cc4ccccc4)n3)c2)c1` [Example 54, 3′-(1-Benzyl-5-phenyl-1H-1,2,4-triazol-3-yl)-[1,1′-biphenyl]-3-carboxylic Acid], the EC50 at rat mGlu2 receptor (setting [1]) was > 10 µM; on rat mGlu2 receptor (setting [2]) it was 2.71 µM; on rat mGlu3 receptor, 3.9 µM.
In the case of `O=C(O)c1cc(F)cc(-c2cccc(-c3nc(-c4ccccc4)cc(C(F)(F)F)n3)c2)c1` [Example 104, 5-Fluoro-3′-(4-phenyl-6-(trifluoromethyl)pyrimidin-2-yl)biphenyl-3-carboxylic Acid], the EC50 on rat mGlu2 receptor (setting [1]) was determined as 1.44 µM; at rat mGlu2 receptor (setting [3]) it was 0.24 µM; at rat mGlu3 receptor, 1.9 µM.
On to `O=C(O)c1ccc(-c2cccc(-c3csc(-c4ccccc4)n3)c2)c(Cl)c1` [Example 26, 2-Chloro-3′-(2-phenylthiazol-4-yl)biphenyl-4-carboxylic Acid], for which the half-maximal effective concentration (EC50) at rat mGlu2 receptor (setting [1]) is > 30 µM; at rat mGlu2 receptor (setting [2]), > 30 µM; on rat mGlu3 receptor, > 10 µM.
As to `Cc1cc2c(cc1C(F)(F)F)NC(=O)CC(c1cccc(Oc3ccccc3)c1)=N2` [Example 143, 7-Methyl-4-(3-phenoxyphenyl)-8-(trifluoromethyl)-1H-benzo[b][1, 4]diazepin-2 (3H)-one], the EC50 at rat mGlu2 receptor (setting [1]) turned out to be 2.21 µM; at rat mGlu2 receptor (setting [2]), 1.19 µM; at rat mGlu3 receptor it was 2.62 µM.
With `COc1ccc(-c2ccc3c(c2)NC(=O)CC(c2ccnc(Cl)c2)=N3)cc1OC` [Example 195, 4-(2-Chloropyridin-4-yl)-8-(3,4-dimethoxyphenyl)-1,3-dihydro-2H-benzo[b][1,4]diazepin-2-one], the EC50 on rat mGlu2 receptor (setting [1]) was found to be 3.83 µM; on rat mGlu2 receptor (setting [3]) it was 2.62 µM; at rat mGlu3 receptor it was 1.39 µM.
As to `O=C(O)c1ccc(F)c(-c2cccc(-c3nc(-c4ccccc4)n(-c4ccccc4)n3)c2)c1` [Example 63, 3′-(1,5-Diphenyl-1H-1,2,4-triazol-3-yl)-6-fluoro-[1,1′-biphenyl]-3-carboxylic acid], the EC50 on rat mGlu2 receptor (setting [1]) is > 10 µM; at rat mGlu2 receptor (setting [2]) it was > 10 µM; at rat mGlu3 receptor, 4.45 µM.
Regarding `N#Cc1cc(C2=Nc3ccc(I)cc3NC(=O)C2)ccn1` [Example 183, 4-(8-Iodo-2-oxo-2,3-dihydro-1H-benzo[b][1,4]diazepin-4-yl)picolinonitrile], the EC50 at rat mGlu2 receptor (setting [1]) is 0.11 µM; on rat mGlu2 receptor (setting [3]) it was 0.03 µM; at rat mGlu3 receptor, 0.07 µM.
For `O=C(O)c1cc(-c2cccc(Oc3nc(-c4ccco4)cc(C(F)(F)F)n3)c2)ccc1F` [Example 128, 4-Fluoro-3′-(4-(furan-2-yl)-6-(trifluoromethyl)pyrimidin-2-yloxy)biphenyl-3-carboxylic Acid], the EC50 on rat mGlu2 receptor (setting [1]), at rat mGlu2 receptor (setting [3]) and on rat mGlu3 receptor was > 30 µM in each case.
On to `Fc1ccc(C#Cc2cccc(-c3nc(-c4ccc(C(F)(F)F)nc4)cc(C(F)(F)F)n3)c2)cc1` [Example 130, 2-(3-((4-Fluorophenyl)ethynyl)phenyl)-4-(trifluoromethyl)-6-(6-(trifluoromethyl)pyridin-3-yl)pyrimidine], for which the EC50 was > 30 µM on rat mGlu2 receptor (setting [1]), > 10 µM at rat mGlu2 receptor (setting [3]) and > 30 µM on rat mGlu3 receptor.
Take `O=C(O)c1cc(F)cc(-c2cccc(-c3nc(-c4ccccc4)n(-c4ccccc4)n3)c2)c1` [Example 52, 3′-(1,5-Diphenyl-1H-1,2,4-triazol-3-yl)-5-fluorobiphenyl-3-carboxylic Acid]: the values for the half-maximal effective concentration (EC50) on rat mGlu2 receptor (setting [1]), on rat mGlu2 receptor (setting [2]) and at rat mGlu3 receptor were > 10 µM, > 10 µM and 3.11 µM, respectively.
Consider `Cc1cc2c(cc1C(F)(F)F)NC(=O)CC(c1cccc(Oc3cccc(Br)c3)c1)=N2` [Example 145, 4-(3-(3-Bromophenoxy)phenyl)-7-methyl-8-(trifluoromethyl)-1H-benzo[b][1,4]diazepin-2(3H)-one], for which the EC50 on rat mGlu2 receptor (setting [1]), on rat mGlu2 receptor (setting [3]) and on rat mGlu3 receptor was > 10 µM throughout.
As to `O=C(O)c1cc(-c2cccc(-c3nc(-c4ccccc4F)cc(C(F)(F)F)n3)c2)ccc1F` [Example 100, 4-Fluoro-3′-(4-(2-fluorophenyl)-6-(trifluoromethyl)pyrimidin-2-yl)biphenyl-3-carboxylic Acid], the EC50 at rat mGlu2 receptor (setting [1]) turned out to be 1.21 µM; at rat mGlu2 receptor (setting [3]), 0.16 µM; on rat mGlu3 receptor, 2.21 µM.
For `Cc1cc2c(cc1C(F)(F)F)NC(=O)CC(c1cccc(Sc3ncccn3)c1)N2` (single isomer, unassigned) [Example 166B, 7-Methyl-4-(3-(pyrimidin-2-ylthio)phenyl)-8-(trifluoromethyl)-4,5-dihydro-1H-benzo[b][1,4]diazepin-2(3H)-one], in that order: 8.47 µM, 1.23 µM and 4.53 µM.
`O=C(O)c1cccc(-c2cccc(-c3csc(-c4ccc(Cl)nc4)n3)c2)c1` [Example 35, 3′-(2-(6-Chloropyridin-3-yl)thiazol-4-yl)biphenyl-3-carboxylic Acid]: the EC50 at rat mGlu2 receptor (setting [1]) was 3.83 µM; at rat mGlu2 receptor (setting [2]), 0.27 µM; at rat mGlu3 receptor, > 10 µM.
Turning to `Cc1nc(-c2cccc(-c3ccc(F)c(C(=O)O)c3)c2)cs1` [Example 6, 4-Fluoro-3′-(2-methylthiazol-4-yl)biphenyl-3-carboxylic Acid], the EC50 on rat mGlu2 receptor (setting [1]), at rat mGlu2 receptor (setting [2]) and on rat mGlu3 receptor was > 10 µM in each case.
On to `c1ccc(-c2nc(-c3cccc(-c4cccc(-c5nn[nH]n5)c4)c3)cs2)cc1` [Example 37, 4-(3′-(2H-Tetrazol-5-yl)biphenyl-3-yl)-2-phenylthiazole], for which the EC50 is 2.98 µM at rat mGlu2 receptor (setting [1]), 1.72 µM at rat mGlu2 receptor (setting [3]) and > 10 µM at rat mGlu3 receptor.
Consider `Cc1noc(C)c1-c1cc(C(F)(F)F)nc(-c2cccc(-c3ccc(F)c(C(=O)O)c3)c2)n1` [Example 111, 3′-(4-(3,5-Dimethylisoxazol-4-yl)-6-(trifluoromethyl)pyrimidin-2-yl)-4-fluorobiphenyl-3-carboxylic Acid], for which the EC50 at rat mGlu2 receptor (setting [1]), at rat mGlu2 receptor (setting [3]) and at rat mGlu3 receptor was > 10 µM in each case.
Consider `O=C(O)c1cc(-c2cccc(-c3nc(-c4ccco4)cc(C(F)(F)F)n3)c2)ccc1F` [Example 88, 4-Fluoro-3′-(4-(furan-2-yl)-6-(trifluoromethyl)pyrimidin-2-yl)biphenyl-3-carboxylic Acid], for which the half-maximal effective concentration (EC50) turned out to be 0.68 µM at rat mGlu2 receptor (setting [1]), 0.34 µM on rat mGlu2 receptor (setting [3]) and 1.13 µM at rat mGlu3 receptor.
For the molecule `Cc1cc(-c2cccc(C3CC(=O)Nc4cc(C(F)(F)F)c(C)cc4N3)c2)cc(C)n1` (racemic) [Example 156, 4-(3-(2,6-Dimethylpyridin-4-yl)phenyl)-7-methyl-8-(trifluoromethyl)-4,5-dihydro-1H-benzo[b][1,4]diazepin-2(3H)-one], the EC50 on rat mGlu2 receptor (setting [1]) is > 10 µM; at rat mGlu2 receptor (setting [2]), 3.7 µM; on rat mGlu3 receptor, > 10 µM.
Turning to `Cc1cc(Cl)ccc1-c1ccc2c(c1)NC(=O)CC(c1ccnc(Cl)c1)=N2` [Example 196, 8-(4-Chloro-2-methylphenyl)-4-(2-chloropyridin-4-yl)-1,3-dihydro-2H-benzo[b][1,4]diazepin-2-one], the EC50 on rat mGlu2 receptor (setting [1]) came out at 3.59 µM; on rat mGlu2 receptor (setting [3]) it was 0.6 µM; on rat mGlu3 receptor, 2.94 µM.
For `N#Cc1cc(C2=Nc3ccc(C#Cc4ccc(F)cc4)cc3NC(=O)C2)ccn1` [Example 185, 4-(8-((4-Fluorophenyl)ethynyl)-2-oxo-2,3-dihydro-1H-benzo[b][1,4]diazepin-4-yl)picolinonitrile], the results for the EC50 on rat mGlu2 receptor (setting [1]) and on rat mGlu3 receptor were > 10 µM and 1.45 µM, respectively.
Regarding `CC(C)n1nc(-c2cccc(-c3cccc(C(=O)O)c3)c2)nc1-c1ccccc1` [Example 64, 3′-(1-Isopropyl-5-phenyl-1H-1,2,4-triazol-3-yl)-[1,1′-biphenyl]-3-carboxylic acid], the EC50 on rat mGlu2 receptor (setting [1]) was > 10 µM; at rat mGlu2 receptor (setting [2]), > 30 µM; at rat mGlu3 receptor it was > 10 µM.
Regarding `O=C(O)c1cc(-c2cccc(-c3nc(-c4ccc(Cl)cc4)cc(C(F)(F)F)n3)c2)ccc1F` [Example 98, 3′-(4-(4-Chlorophenyl)-6-(trifluoromethyl)pyrimidin-2-yl)-4-fluorobiphenyl-3-carboxylic Acid], the EC50 was 2.87 µM at rat mGlu2 receptor (setting [1]), 0.35 µM on rat mGlu2 receptor (setting [3]) and 2.47 µM on rat mGlu3 receptor.
For `N#Cc1cc(C2=Nc3ccc(F)cc3NC(=O)C2)ccn1` [Example 180, 4-(8-Fluoro-2-oxo-2,3-dihydro-1H-benzo[b][1,4]diazepin-4-yl)picolinonitrile], the figures for the EC50 at rat mGlu2 receptor (setting [1]), at rat mGlu2 receptor (setting [3]) and on rat mGlu3 receptor were 0.88 µM, 0.31 µM and 0.86 µM, respectively.
